Values joined by “and” are separate entries in the source; they are usually repeats but may differ in a detail not shown here. Equal values may be shown once.
Columns and labels:
[1] = test system: MT4; experiment: Cytotoxicity against human MT4 cells assessed as reduction in cell viability by MTT assay; type: functional
[2] = test system: Human immunodeficiency virus 1; experiment: Antiviral activity against wild type HIV-1 infected in human MT4 cells assessed as inhibition of viral infection by MTT assay; type: functional, organism-based
[3] = test system: Human immunodeficiency virus 1; experiment: Antiviral activity against […] HIV-1 harboring T174I mutant infected in human MT4 cells assessed as inhibition of viral infection by MTT assay; type: functional, organism-based
[4] = Metabolic stability in rat liver microsomes; type: ADME, Microsome
[5] = Metabolic stability in human liver microsomes; type: ADME, Microsome
[6] = Elimination half life in rat at 0.5 mg/kg, iv; type: ADME, organism-based; settings: in vivo, read-out: beta t1/2 (converted)
[7] = AUC in rat at 0.5 mg/kg, iv; type: ADME, organism-based; parameters: dose 0.5 mg/kg, route iv; settings: in vivo
[8] = Oral bioavailability in rat at 1 mg/kg; type: ADME, organism-based; settings: in vivo
[9] = Human immunodeficiency virus 1, MT4

Structure (SMILES)	CC50 ([1]; Homo sapiens, MT4) [nM]	EC50 [2, 9] [nM]	EC50 [3, 9] [nM]	further results
Cc1ccc(-c2c(C)c3c(c(C)c2[C@H](OC(C)(C)C)C(=O)O)N(C)S(=O)(=O)c2ccccc2-3)cc1	19000	76	–	–
Cc1ccc(-c2c(C)c3c(c(C)c2[C@H](OC(C)(C)C)C(=O)O)N(S(C)(=O)=O)Cc2ccc(C)cc2-3)cc1	13000	12	930	–
Cc1c(-c2ccc3c(c2)CCCO3)c([C@H](OC(C)(C)C)C(=O)O)c(C)c2c1-c1c(F)cccc1CN2S(C)(=O)=O	29000	6.2	170	–
Cc1ccc(-c2c(C)c3c(c(C)c2[C@H](OC(C)(C)C)C(=O)O)N(S(C)(=O)=O)Cc2cccnc2-3)cc1	70000	23	3200	–
Cc1ccc(-c2c(C)c3c(c(C)c2[C@H](OC(C)(C)C)C(=O)O)N(S(C)(=O)=O)Cc2ccc(F)cc2-3)cc1	15000	11	1200	–
Cc1ccc(-c2c(C)c3c(c(C)c2[C@H](OC(C)(C)C)C(=O)O)N(S(C)(=O)=O)Cc2cccc(Cl)c2-3)cc1	16000	15	540	–
Cc1ccc(-c2c(C)c3c(c(C)c2[C@H](OC(C)(C)C)C(=O)O)N(S(C)(=O)=O)Cc2ncccc2-3)cc1	61000	58	> 5000	–
Cc1ccc(-c2c([C@H](OC(C)(C)C)C(=O)O)c(C)c3[nH]c4ccccc4c3c2C)cc1	13000	310	–	–
Cc1ccc(-c2c(C)c3c(c(C)c2[C@H](OC(C)(C)C)C(=O)O)N(S(C)(=O)=O)Cc2c(F)cccc2-3)cc1	24000	10	510	–
Cc1ccc(-c2c(C)c3c(c(C)c2[C@H](OC(C)(C)C)C(=O)O)N(S(C)(=O)=O)Cc2cnccc2-3)cc1	65000	65	> 5000	–
Cc1ccc(-c2c(C)c3c(c(C)c2[C@H](OC(C)(C)C)C(=O)O)N(S(C)(=O)=O)Cc2cc(C#N)ccc2-3)cc1	35000	7.3	720	–
Cc1ccc(-c2c([C@H](OC(C)(C)C)C(=O)O)c(C)c3c(c2C)c2ccccc2c(=O)n3C)cc1	25000	730	–	–
Cc1ccc(-c2c(C)cc(N(Cc3ccccc3)S(C)(=O)=O)c(C)c2[C@H](OC(C)(C)C)C(=O)O)cc1	14000	56	–	–
Cc1ccc(-c2c(C)c3c(c(C)c2[C@H](OC(C)(C)C)C(=O)O)N(S(C)(=O)=O)Cc2cccc(F)c2-3)c(C)c1	18000	–	1100	CC50 [1]: 11000 nM; EC50 ([3]; mt4): 1500 nM; EC50 ([2]; mt4): 3.7 nM and 9.5 nM
Cc1ccc(-c2c(C)c3c(c(C)c2[C@H](OC(C)(C)C)C(=O)O)N(S(C)(=O)=O)Cc2ccccc2-3)cc1	21000	11	810	–
COc1ccc(-c2c(C)c3c(c(C)c2[C@H](OC(C)(C)C)C(=O)O)N(S(C)(=O)=O)Cc2cccc(F)c2-3)cc1	31000	6.4	320	–
Cc1c(-c2ccc(Cl)cc2)c([C@H](OC(C)(C)C)C(=O)O)c(C)c2c1-c1c(F)cccc1CN2S(C)(=O)=O	16000	8.6	340	–

Structure (SMILES)	CC50 ([1]; Homo sapiens, MT4) [nM]	EC50 [2, 9] [nM]	EC50 [3, 9] [nM]	further results
Cc1c(-c2c(C)c3c(c(C)c2[C@H](OC(C)(C)C)C(=O)O)N(S(C)(=O)=O)Cc2cccc(F)c2-3)ccc2c1CCCO2	17000	–	–	CC50 [1]: 22000 nM; EC50 ([3]; mt4): 48 nM and 420 nM; EC50 ([2]; mt4): 1.9 nM and 6.7 nM
Cc1ccc(-c2c(C)c3c(c(C)c2[C@H](OC(C)(C)C)C(=O)O)N(S(C)(=O)=O)Cc2cccc(F)c2-3)cc1	17000	5.5	290	–
Cc1ccc(-c2c(C)c3c(c(C)c2[C@H](OC(C)(C)C)C(=O)O)N(S(C)(=O)=O)Cc2ccncc2-3)cc1	25000	20	> 5000	–
Cc1ccc(-c2c(C)c3c(c(C)c2[C@H](OC(C)(C)C)C(=O)O)N(S(C)(=O)=O)Cc2cccc(F)c2-3)c(O)c1	–	–	–	CC50 [1]: 59000 nM and 14000 nM; EC50 ([2]; mt4): 4.6 nM and 21 nM; Stability [4]: 60.7%; Stability [5]: 76.3%; half-life [6]: 3.5 h; AUC [7]: 21.2 ng·h/mL; bioavailability [8]: 17.8%
Cc1ccc(-c2c(C)c3c(c(C)c2[C@H](OC(C)(C)C)C(=O)O)N(C)Cc2ccccc2-3)cc1	8400	120	–	–
Cc1ccc(-c2c(C)c3c(c(C)c2[C@H](OC(C)(C)C)C(=O)O)N(S(C)(=O)=O)Cc2cc(C)ccc2-3)cc1	14000	4.9	440	–
CC(=O)N1Cc2ccccc2-c2c(C)c(-c3ccc(C)cc3)c([C@H](OC(C)(C)C)C(=O)O)c(C)c21	27000	30	–	–
Cc1ccc(-c2c(C)c3c(c(C)c2[C@H](OC(C)(C)C)C(=O)O)N(S(C)(=O)=O)Cc2cc(Cl)ccc2-3)cc1	13000	3.9	330	–
COc1ccc2c(c1)CN(S(C)(=O)=O)c1c(C)c([C@H](OC(C)(C)C)C(=O)O)c(-c3ccc(C)cc3)c(C)c1-2	17000	2.9	270	–
Cc1ccc(-c2c(C)c3c(c(C)c2[C@H](OC(C)(C)C)C(=O)O)N(S(C)(=O)=O)Cc2c(C)cccc2-3)cc1	17000	8	670	–
Cc1c(-c2ccc(F)cc2)c([C@H](OC(C)(C)C)C(=O)O)c(C)c2c1-c1c(F)cccc1CN2S(C)(=O)=O	32000	12	860	–
Cc1c(-c2ccc3c(c2)NCCO3)c([C@H](OC(C)(C)C)C(=O)O)c(C)c2c1-c1c(F)cccc1CN2S(C)(=O)=O	55000	10	150	–
Cc1ccc(-c2c(C)c3c(c(C)c2[C@H](OC(C)(C)C)C(=O)O)N(S(C)(=O)=O)Cc2cc(C(F)(F)F)ccc2-3)cc1	10000	3	460	–
Cc1ccc(-c2c(C)c3c(c(C)c2[C@H](OC(C)(C)C)C(=O)O)N(S(C)(=O)=O)Cc2cccc(C)c2-3)cc1	17000	20	600	–
Cc1c(-c2ccc3c(c2)NCCC3)c([C@H](OC(C)(C)C)C(=O)O)c(C)c2c1-c1c(F)cccc1CN2S(C)(=O)=O	30000	4.3	99	–
Cc1ccc(-c2c(C)c3c(c(C)c2[C@H](OC(C)(C)C)C(=O)O)N(S(C)(=O)=O)Cc2cc(F)ccc2-3)cc1	19000	5.7	360	–
Cc1nc2ccccc2c(-c2ccc3c4c(ccnc24)CCO3)c1[C@H](OC(C)(C)C)C(=O)O [BI-224436]	> 50000	20	> 5000	–

Reference: ChEMBL document CHEMBL5143620, “Discovery of tricyclic HIV-1 integrase-LEDGF/p75 allosteric inhibitors by intramolecular direct arylation reaction” (Bioorg Med Chem Lett, 2022)
